The numbers were not newly measured in patent US20220331235A1, “COMPOSITIONS FOR ORAL MICROADHESIVE DOSAGE FORMS” (FP NUTRACEUTICALS, LLC, priority 2018, published 2022), which cites them from elsewhere.

For series [1] the following is noted: vitamin B6: from food or supplements.
The conditions of series [2]: rat brain.

For the compound `[O-2].[Zn+2]` [Zn-oxide], the “plasma zinc rankings based on area under the curve and rank results per person” value (“plasma zinc rankings based on area … per person” for short) was “glycinate>gluconate>picolinate=oxide”.

As to cobalamin [vitamin B12], in series [1], the bioavailability is recorded as 1-2%.

On to `Cc1ncc(CO)c(CO)c1O` [vitamin B6, pyridoxine], for which, in series [1], the bioavailability was 75-100%.

As to zinc gluconate, the “plasma zinc rankings based on area … per person” value is recorded as “glycinate>gluconate>picolinate=oxide”.

As to `NCC(=O)[O-].NCC(=O)[O-].[Zn+2]` [zinc glycinate], the “plasma zinc rankings based on area … per person” value is recorded as “glycinate>gluconate>picolinate=oxide”. Moreover, the “bioavailability among four forms of zinc (oxide, picolinate, gluconate, glycinate)” value (acute uptake) is on record as “highest bioavailability”. Further, under “versus second most-bioavailable form”, the “increase in bioavailability over zinc gluconate” value is recorded as 43.4%.

For `O=C([O-])c1ccccn1.O=C([O-])c1ccccn1.[Zn+2]` [Zn-picolinate], the “plasma zinc rankings based on area … per person” value is on record as “glycinate>gluconate>picolinate=oxide”.

For the compound `O=C([O-])c1cc(=O)[nH]c(=O)[nH]1.[Li+]` [lithium orotate], the “level in the brain compared to the carbonate form” value in series [2] is “three-fold higher”.
